Measured values taken from PubChem BioAssay (NCI).
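Values below derive from 48-hour exposures of cells grown in 96-well plates, with endpoints linearly interpolated between the two concentrations bracketing the appropriate inhibition level. GI50: concentration for 50% inhibition of growth. TGI: total growth inhibition.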

Experiments:
Assay in all cases: growth of human tumour cells (NCI), 48 h
786-0 renal = tested on: 786-0 renal
A498 renal = tested on: A498 renal
A549 NSCLC = tested on: A549 NSCLC
ACHN renal = tested on: ACHN renal
BT-549 breast = tested on: BT-549 breast
CAKI-1 renal = tested on: CAKI-1 renal
CCRF-CEM leukemia = tested on: CCRF-CEM leukemia
COLO 205 colon = tested on: COLO 205 colon
DU-145 prostate = tested on: DU-145 prostate
EKVX NSCLC = tested on: EKVX NSCLC
HCC-2998 colon = tested on: HCC-2998 colon
HCT-116 colon = tested on: HCT-116 colon
HCT-15 colon = tested on: HCT-15 colon
HL-60(TB) leukemia = tested on: HL-60(TB) leukemia
HOP-62 NSCLC = tested on: HOP-62 NSCLC
HOP-92 NSCLC = tested on: HOP-92 NSCLC
HS 578T breast = tested on: HS 578T breast
HT29 colon = tested on: HT29 colon
IGROV1 ovarian = tested on: IGROV1 ovarian
K-562 leukemia = tested on: K-562 leukemia
KM12 colon = tested on: KM12 colon
LOX IMVI melanoma = tested on: LOX IMVI melanoma
M14 melanoma = tested on: M14 melanoma
MALME-3M melanoma = tested on: MALME-3M melanoma
MCF7 breast = tested on: MCF7 breast
MDA-MB-231 breast = tested on: MDA-MB-231 breast
MDA-MB-435 = tested on: MDA-MB-435
MOLT-4 leukemia = tested on: MOLT-4 leukemia
NCI-H226 lung = tested on: NCI-H226 lung
NCI-H23 lung = tested on: NCI-H23 lung
NCI-H460 lung = tested on: NCI-H460 lung
NCI-H522 lung = tested on: NCI-H522 lung
NCI/ADR-RES ovarian = tested on: NCI/ADR-RES ovarian
OVCAR-3 ovarian = tested on: OVCAR-3 ovarian
OVCAR-4 ovarian = tested on: OVCAR-4 ovarian
OVCAR-5 ovarian = tested on: OVCAR-5 ovarian
OVCAR-8 ovarian = tested on: OVCAR-8 ovarian
PC-3 prostate = tested on: PC-3 prostate
RPMI-8226 leukemia = tested on: RPMI-8226 leukemia
RXF 393 renal = tested on: RXF 393 renal
SF-268 CNS = tested on: SF-268 CNS
SF-295 CNS = tested on: SF-295 CNS
SF-539 CNS = tested on: SF-539 CNS
SK-MEL-2 melanoma = tested on: SK-MEL-2 melanoma
SK-MEL-28 melanoma = tested on: SK-MEL-28 melanoma
SK-MEL-5 melanoma = tested on: SK-MEL-5 melanoma
SK-OV-3 ovarian = tested on: SK-OV-3 ovarian
SN12C renal = tested on: SN12C renal
SNB-19 CNS = tested on: SNB-19 CNS
SNB-75 CNS = tested on: SNB-75 CNS
SR leukemia = tested on: SR leukemia
SW-620 colon = tested on: SW-620 colon
T-47D breast = tested on: T-47D breast
TK-10 renal = tested on: TK-10 renal
U251 CNS = tested on: U251 CNS
UACC-257 melanoma = tested on: UACC-257 melanoma
UACC-62 melanoma = tested on: UACC-62 melanoma
UO-31 renal = tested on: UO-31 renal

## CC(C)(C)Nc1nc2c(OCCc3ccccc3)cccn2c1-c1cccc(F)c1
786-0 renal
  GI50: 13.5 µM
  TGI: 52.8 µM
A498 renal
  GI50: 15.8 µM
  TGI: 65.1 µM
A549 NSCLC
  GI50: 4.4 µM
  TGI: > 100 µM
ACHN renal
  GI50: 4.63 µM
  TGI: > 100 µM
BT-549 breast
  GI50: 10.3 µM
  TGI: 36.3 µM
CAKI-1 renal
  GI50: 5.22 µM
  TGI: > 100 µM
CCRF-CEM leukemia
  GI50: 6.53 µM
  TGI: > 100 µM
COLO 205 colon
  GI50: 8.88 µM
  TGI: 26.8 µM
DU-145 prostate
  GI50: 9.13 µM
  TGI: > 100 µM
EKVX NSCLC
  GI50: 3.44 µM
  TGI: > 100 µM
HCC-2998 colon
  GI50: 4.81 µM
  TGI: 69.6 µM
HCT-116 colon
  GI50: 4.12 µM
  TGI: 36 µM
HCT-15 colon
  GI50: 3.51 µM
  TGI: 14.2 µM
HL-60(TB) leukemia
  GI50: 3.78 µM
  TGI: 18.8 µM
HOP-62 NSCLC
  GI50: 11.8 µM
  TGI: 42 µM
HOP-92 NSCLC
  GI50: 3.3 µM
  TGI: > 100 µM
HS 578T breast
  GI50: 10.1 µM
  TGI: 64.2 µM
HT29 colon
  GI50: 5.02 µM
  TGI: 24 µM
IGROV1 ovarian
  GI50: 8.99 µM
  TGI: > 100 µM
K-562 leukemia
  GI50: 3.49 µM
  TGI: > 100 µM
KM12 colon
  GI50: 4.13 µM
  TGI: > 100 µM
LOX IMVI melanoma
  GI50: 5.02 µM
  TGI: 17 µM
M14 melanoma
  GI50: 6.79 µM
  TGI: 32.1 µM
MALME-3M melanoma
  GI50: 3.6 µM
  TGI: 22.8 µM
MCF7 breast
  GI50: 4.34 µM
  TGI: 32.4 µM
MDA-MB-231 breast
  GI50: 10.2 µM
  TGI: 26.2 µM
MDA-MB-435
  GI50: 5.07 µM
  TGI: 27.4 µM
MOLT-4 leukemia
  GI50: 3.22 µM
  TGI: > 100 µM
NCI-H226 lung
  GI50: 6.29 µM
  TGI: 63 µM
NCI-H23 lung
  GI50: 4.13 µM
  TGI: 34.8 µM
NCI-H460 lung
  GI50: 5.5 µM
  TGI: 24.8 µM
NCI-H522 lung
  GI50: 4.17 µM
  TGI: 42.3 µM
NCI/ADR-RES ovarian
  GI50: 4.25 µM
  TGI: > 100 µM
OVCAR-3 ovarian
  GI50: 3.91 µM
  TGI: 39 µM
OVCAR-4 ovarian
  GI50: 4.52 µM
  TGI: > 100 µM
OVCAR-5 ovarian
  GI50: 8.58 µM
  TGI: > 100 µM
OVCAR-8 ovarian
  GI50: 9.39 µM
  TGI: > 100 µM
PC-3 prostate
  GI50: 4.91 µM
  TGI: > 100 µM
RPMI-8226 leukemia
  GI50: 3.7 µM
  TGI: 62.1 µM
RXF 393 renal
  GI50: 8.78 µM
  TGI: 29.2 µM
SF-268 CNS
  GI50: 7.84 µM
  TGI: > 100 µM
SF-295 CNS
  GI50: 4.41 µM
  TGI: 22 µM
SF-539 CNS
  GI50: 10.1 µM
  TGI: 23.1 µM
SK-MEL-2 melanoma
  GI50: 3.11 µM
  TGI: 12.4 µM
SK-MEL-28 melanoma
  GI50: 3.93 µM
  TGI: 74.6 µM
SK-MEL-5 melanoma
  GI50: 5.26 µM
  TGI: 17.7 µM
SK-OV-3 ovarian
  GI50: 19.9 µM
  TGI: > 100 µM
SN12C renal
  GI50: 3.99 µM
  TGI: > 100 µM
SNB-19 CNS
  GI50: 5.81 µM
  TGI: > 100 µM
SNB-75 CNS
  GI50: 16.1 µM
  TGI: > 100 µM
SR leukemia
  GI50: 4.48 µM
  TGI: > 100 µM
SW-620 colon
  GI50: 11.3 µM
  TGI: 87.1 µM
T-47D breast
  GI50: 3.55 µM
  TGI: > 100 µM
TK-10 renal
  GI50: 14.2 µM
  TGI: > 100 µM
U251 CNS
  GI50: 6.19 µM
  TGI: 25.2 µM
UACC-257 melanoma
  GI50: 7.56 µM
  TGI: > 100 µM
UACC-62 melanoma
  GI50: 2.92 µM
  TGI: 12.2 µM
UO-31 renal
  GI50: 2.75 µM
  TGI: 19.7 µM

## CN(C)CCCOc1c2ccc(Cl)cc2nc2c1oc1ccc(Cl)cc12
786-0 renal
  GI50: 4.12 µM
  TGI: 16.1 µM
A498 renal
  GI50: 6.44 µM
  TGI: 27.7 µM
A549 NSCLC
  GI50: 2.73 µM
  TGI: 11.8 µM
ACHN renal
  GI50: 2.51 µM
  TGI: 13.2 µM
BT-549 breast
  GI50: 7.26 µM
  TGI: > 30.5 µM
CAKI-1 renal
  GI50: 1.39 µM
  TGI: 5.96 µM
CCRF-CEM leukemia
  GI50: 2.18 µM
  TGI: 14.1 µM
COLO 205 colon
  GI50: 1.33 µM
  TGI: 7.87 µM
DU-145 prostate
  GI50: 4.21 µM
  TGI: 14.4 µM
EKVX NSCLC
  GI50: 2.46 µM
  TGI: 7.3 µM
HCC-2998 colon
  GI50: 4.18 µM
  TGI: 15.5 µM
HCT-116 colon
  GI50: 3.73 µM
  TGI: 23.6 µM
HCT-15 colon
  GI50: 1.35 µM
  TGI: 5.41 µM
HL-60(TB) leukemia
  GI50: 2.95 µM
  TGI: 15.7 µM
HOP-62 NSCLC
  GI50: 3.21 µM
  TGI: 22 µM
HOP-92 NSCLC
  GI50: 1.08 µM
  TGI: 12.9 µM
HS 578T breast
  GI50: 1.98 µM
  TGI: 9.43 µM
HT29 colon
  GI50: 1.22 µM
  TGI: 5.15 µM
IGROV1 ovarian
  GI50: 2.34 µM
  TGI: 12.5 µM
K-562 leukemia
  GI50: 1.05 µM
  TGI: 5.07 µM
KM12 colon
  GI50: 2.22 µM
  TGI: 7.52 µM
LOX IMVI melanoma
  GI50: 0.857 µM
  TGI: 3.56 µM
M14 melanoma
  GI50: 3.15 µM
  TGI: 9.37 µM
MALME-3M melanoma
  GI50: 3.24 µM
  TGI: 16.2 µM
MCF7 breast
  GI50: 1.24 µM
  TGI: 4.9 µM
MDA-MB-231 breast
  GI50: 1.92 µM
  TGI: 6.5 µM
MDA-MB-435
  GI50: 2.17 µM
  TGI: 6.39 µM
MOLT-4 leukemia
  GI50: 1.23 µM
  TGI: 6.58 µM
NCI-H226 lung
  GI50: 1.99 µM
  TGI: 8.13 µM
NCI-H23 lung
  GI50: 3.43 µM
  TGI: 15.6 µM
NCI-H460 lung
  GI50: 1.08 µM
  TGI: 3.92 µM
NCI-H522 lung
  GI50: 4.33 µM
  TGI: 23.5 µM
NCI/ADR-RES ovarian
  GI50: 3.72 µM
  TGI: 17.7 µM
OVCAR-3 ovarian
  GI50: 2.43 µM
  TGI: 7.57 µM
OVCAR-4 ovarian
  GI50: 2.1 µM
  TGI: 6.4 µM
OVCAR-5 ovarian
  GI50: 2.46 µM
  TGI: 6.76 µM
OVCAR-8 ovarian
  GI50: 1.49 µM
  TGI: 6.04 µM
PC-3 prostate
  GI50: 1.69 µM
  TGI: 9.2 µM
RPMI-8226 leukemia
  GI50: 1.97 µM
RXF 393 renal
  GI50: 1.8 µM
  TGI: 4.88 µM
SF-268 CNS
  GI50: 4.85 µM
  TGI: 21.8 µM
SF-295 CNS
  GI50: 2.12 µM
  TGI: 6.44 µM
SF-539 CNS
  GI50: 3.37 µM
  TGI: 13.8 µM
SK-MEL-2 melanoma
  GI50: 4.66 µM
  TGI: 12.4 µM
SK-MEL-28 melanoma
  GI50: 5.09 µM
  TGI: 9.67 µM
SK-MEL-5 melanoma
  GI50: 4.48 µM
  TGI: 8.96 µM
SK-OV-3 ovarian
  GI50: 3.79 µM
  TGI: 15 µM
SN12C renal
  GI50: 1.46 µM
  TGI: 5.55 µM
SNB-19 CNS
  GI50: 1.89 µM
  TGI: 6.61 µM
SNB-75 CNS
  GI50: 1.41 µM
  TGI: 6.65 µM
SR leukemia
  GI50: 1.18 µM
  TGI: 5.33 µM
SW-620 colon
  GI50: 0.9 µM
  TGI: 4.36 µM
T-47D breast
  GI50: 12.7 µM
  TGI: > 59.1 µM
TK-10 renal
  GI50: 6.62 µM
  TGI: 21.1 µM
U251 CNS
  GI50: 3.23 µM
  TGI: 12.9 µM
UACC-257 melanoma
  GI50: 3.71 µM
  TGI: 9.21 µM
UACC-62 melanoma
  GI50: 4.85 µM
  TGI: 10.1 µM
UO-31 renal
  GI50: 1.35 µM
  TGI: 11.7 µM
